Tests used:
[1] = In vitro DPPH free radical scavenging antioxidant potency; settings: Tris-HCl buffer pH 7.4, 45 minutes in dark, absorbency at 517 nm, references probucol and α-tocopherol
Procedure: In vitro evaluation of free radical scavenging antioxidant potency:
Antioxidant activity of the compounds ((−)-Matairesinol and (−)-wikstromol) were tested for their capacity/potency to scavenger most widely used free radical 2,2-diphenyl-1-[…] radical (DPPH). The well-accepted and tested probucol and α-tocopherol were taken as reference compounds. 1 mg/ml DMSO concentration of the compounds [(−)-Matairesinol and (−)-wikstromol] were prepared and subsequently, serially diluted to lower concentrations with DMSO […] of test compounds were reconstituted to 1 ml in Tris-HCl buffer (pH 7.4) equal volume of 500 μm of DPPH radical dissolved in ethanol was reacted with this. After incubation for 45 minutes in dark, the absorbency at 517 nm was recorded. Radical with no compound was taken as control for calculation of % radical scavenging activity. All the readings were recorded in triplicate.

[2] = biological target: T1, human sex hormone-binding globulin (SHBG) (Homo sapiens, UniProt P04278); settings: cited from earlier work
T1 sequence (P04278 30-402): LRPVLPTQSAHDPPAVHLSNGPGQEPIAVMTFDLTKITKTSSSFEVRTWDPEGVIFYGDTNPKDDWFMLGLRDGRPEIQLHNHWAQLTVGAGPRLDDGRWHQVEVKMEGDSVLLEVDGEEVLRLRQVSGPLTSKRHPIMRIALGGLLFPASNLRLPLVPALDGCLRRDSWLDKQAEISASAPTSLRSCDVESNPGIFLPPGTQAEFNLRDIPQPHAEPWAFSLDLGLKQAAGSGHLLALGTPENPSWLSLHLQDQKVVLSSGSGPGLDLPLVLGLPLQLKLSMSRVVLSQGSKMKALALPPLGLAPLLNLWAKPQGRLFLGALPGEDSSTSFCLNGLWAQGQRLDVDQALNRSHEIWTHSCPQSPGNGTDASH

[3] = Effectiveness on administration at 250 mg/kg of body weight; assay type: in vivo; settings: dosage of 250 mg/kg of body weight
[4] = system: CAMP phosphodiesterase; settings: cited from earlier work
[5] = system: HIV; settings: cited from earlier work
[6] = system: p-388 lymphocyte leukemia; settings: cited from earlier work

COc1cc(C[C@H]2COC(=O)[C@@H]2Cc2ccc(O)c(OC)c2)ccc1O [(−)-Matairesinol, 4,4^1-dihydroxy-3, 3^1-dimethoxylignan-9, 9^1-olide]
antioxidant/radical scavenging potency compared with reference standards [1]: more potent antioxidant/radical scavenging potency than reference standards
binding of H-labeled 5α-dihydrotestosterone (DHT) to human SHBG [2]: reduce the binding
effectiveness when administered [3]: highly effective
CAMP phosphodiesterase inhibition activity [4]: exhibits CAMP phosphodiesterase inhibition activity

COc1cc(C[C@@H]2COC(=O)[C@@]2(O)Cc2ccc(O)c(OC)c2)ccc1O [(−)-wikstromol, 4,4^1,8-trihydroxy-3, 3^1-dimethoxyliganan-9, 9^1-olide]
anti-HIV activity [5]: anti-HIV activity
antioxidant/radical scavenging potency compared with reference standards [1]: more potent antioxidant/radical scavenging potency than reference standards
activity against p-388 lymphocyte leukemia [6]: active against p-388 lymphocyte leukemia
effectiveness when administered [3]: highly effective

Source: patent publication US6458831B1, “Use of two plant phenols in the treatment of arteriosclerosis” (Council of Scientific and Industrial Research, priority 2000, dated 2002)
